US10494360B2, “Inhibitors of indoleamine 2,3-dioxygenase” (NETHERLANDS TRANSLATIONAL RESEARCH CENTER B.V., priority 2016, dated 2019)
pIC50: −log10 of the molar value. Where “and” joins values, the source holds several entries; their conditions need not be identical. Identical values can stand only once.

Biological target: IDO1 (Homo sapiens, UniProt P14902)
Assay: Biochemical IDO1 assay (NFK GreenScreen)
Parameters: Recombinant full-length IDO1 (Seegers, N., et al.) and all other assay components were diluted in IDO1 reaction buffer; made in house
Details: for pIC50: recombinant full-length IDO1 25 nM, L-tryptophan 100 μM, NFK Green detection, read-out: IC50, inhibitory potency on IDO1; for relative activity of separated isomers: less active / most active isomer of the pair, assay not given
Experimental: Inhibition of IDO1 activity can be measured by determining the enzymatic conversion of L-tryptophan into N-formylkynurenine (NFK) in a reaction mixture containing IDO1 and test compound. The formation of NFK can be detected directly by, for instance, high-performance liquid chromatography (HPLC) methods, or by intrinsic fluorescence.
Compounds were serially diluted in dimethylsulfoxide (DMSO) and finally in IDO1 reaction buffer, consisting of 50 mM NaH2PO4, pH7.0, supplemented with 0.05% Tween-20 (cat. No. P7949; Sigma Aldrich) and 1% glycerol. Recombinant full-length IDO1 (Seegers, N., et al.) and all other assay components were diluted in IDO1 reaction buffer. […] Subsequently, 10 μl of 0.4 mM of the substrate L-tryptophan was added, i.e., the final concentration of L-tryptophan was 100 μM. The DMSO concentration in the assay was 0.3%. […] Incubation was continued for 60 min at room temperature. Then, 10 μl of NFK Green™ (NTRC, Oss, The Netherlands) was added, the plate was sealed, and the reaction was developed for 3 hours at 37° C. To determine the production of N-formyl kynurenine (NFK), the seal was removed and fluorescence was read on an EnVision multimode reader (Perkin Elmer, Waltham, Mass., USA). IC50 were calculated using XLfit™ software (ID Business Solutions, Ltd., Surrey, U.K.).

Sequence of IDO1 (P14902 whole entry, species assumed): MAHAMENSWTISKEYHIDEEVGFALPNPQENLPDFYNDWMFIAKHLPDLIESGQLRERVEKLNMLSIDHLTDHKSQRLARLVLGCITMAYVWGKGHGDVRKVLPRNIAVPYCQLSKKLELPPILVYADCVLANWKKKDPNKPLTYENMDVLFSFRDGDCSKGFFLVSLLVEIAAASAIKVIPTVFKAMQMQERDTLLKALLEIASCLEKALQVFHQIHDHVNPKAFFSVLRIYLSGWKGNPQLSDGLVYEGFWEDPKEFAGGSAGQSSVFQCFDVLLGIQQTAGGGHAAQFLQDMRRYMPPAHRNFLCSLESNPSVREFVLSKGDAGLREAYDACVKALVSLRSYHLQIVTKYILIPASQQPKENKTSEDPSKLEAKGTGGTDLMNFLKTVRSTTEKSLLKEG

Row | pIC50 | relative activity of separated isomers | SMILES
1 | ≥ 5.30 and 5.30 to 6.00 |  | O=C1CN(C(=O)c2ccccc2)C(c2cccc(Cl)c2)N1O (stereo not shown) [Example 60, 1-Benzoyl-2-(3-chlorophenyl)-3-hydroxy-imidazolidin-4-one]
2 | ≥ 5.30 and 5.30 to 6.00 |  | O=C1CN(C(=O)c2ccccc2C(F)(F)F)C(c2cccc(Br)c2)N1O (stereo not shown) [Example 28, 2-(3-Bromophenyl)-3-hydroxy-1-[2-(trifluoromethyl)benzoyl]imidazolidin-4-one]
3 | ≥ 5.30 and 5.30 to 6.00 |  | O=C1CN(C(=O)c2ccccc2)C(c2cccc(C(F)(F)F)c2)N1O (stereo not shown) [Example 1, 1-Benzoyl-3-hydroxy-2-[3-(trifluoromethyl)phenyl]imidazolidin-4-one]
4 | ≥ 5.30 and 5.30 to 6.00 |  | O=C1CN(C(=O)c2cc(F)ccc2Cl)C(c2cccc(Br)c2)N1O (stereo not shown) [Example 31, 2-(3-Bromophenyl)-1-(2-chloro-5-fluoro-benzoyl)-3-hydroxy-imidazolidin-4-one]
5 | ≥ 5.30 and 5.30 to 6.00 |  | O=C1CN(C(=O)c2cccs2)C(c2cccc(Br)c2)N1O (stereo not shown) [Example 90, 2-(3-Bromophenyl)-3-hydroxy-1-(thiophene-2-carbonyl)imidazolidin-4-one]
6 | ≥ 5.30 and 5.30 to 6.00 |  | Cc1ccccc1C(=O)N1CC(=O)N(O)C1c1cccc(Br)c1 (stereo not shown) [Example 20, 2-(3-Bromophenyl)-3-hydroxy-1-(2-methylbenzoyl)imidazolidin-4-one]
7 | ≥ 6.00 |  | O=C1CN(C(=O)c2c(F)cc(-c3ccccc3)cc2F)C(c2cccc(Br)c2)N1O (stereo not shown) [Example 117, 2-(3-Bromophenyl)-1-(2,6-difluoro-4-phenyl-benzoyl)-3-hydroxy-imidazolidin-4-one]
8 | ≥ 5.30 and 5.30 to 6.00 |  | Cc1cccc(F)c1C(=O)N1CC(=O)N(O)C1c1cccc(Br)c1 (stereo not shown) [Example 88, 2-(3-Bromophenyl)-1-(2-fluoro-6-methyl-benzoyl)-3-hydroxy-imidazolidin-4-one]
9 | ≥ 5.30 and 5.30 to 6.00 |  | O=C1CN(C(=O)c2ccc3cn[nH]c3c2)C(c2cccc(Br)c2)N1O (stereo not shown) [Example 103, 2-(3-Bromophenyl)-3-hydroxy-1-(1H-indazole-6-carbonyl)imidazolidin-4-one]
10 | ≥ 5.30 and 5.30 to 6.00 |  | O=C1CN(C(=O)c2cccnc2Cl)C(c2cccc(Br)c2)N1O (stereo not shown) [Example 61, 2-(3-Bromophenyl)-1-(2-chloropyridine-3-carbonyl)-3-hydroxy-imidazolidin-4-one]
11 | ≥ 6.00 |  | O=C1CN(C(=O)c2c(F)cccc2C(F)(F)F)C(c2cccc(Br)c2)N1O (stereo not shown) [Example 37, 2-(3-Bromophenyl)-1-[2-fluoro-6-(trifluoromethyl)benzoyl]-3-hydroxy-imidazolidin-4-one]
12 | ≥ 6.00 |  | O=C1CN(C(=O)c2ccccc2)C(c2cccc(Br)c2)N1O (single isomer, unassigned) [Example 63a, 1-benzoyl-2-(3-bromophenyl)-3-hydroxy-imidazolidin-4-one]
13 | ≥ 5.30 and 5.30 to 6.00 |  | O=C1CN(C(=O)c2ccc(Cl)cc2Cl)C(c2cccc(Br)c2)N1O (stereo not shown) [Example 16, 2-(3-Bromophenyl)-1-(2,4-dichlorobenzoyl)-3-hydroxy-imidazolidin-4-one]

The next lines start with the compound.

Row | SMILES | pIC50 | relative activity of separated isomers
14 | CS(=O)(=O)NCC#Cc1cc(F)c(C(=O)N2CC(=O)N(O)C2c2cccc(Br)c2)c(F)c1 (stereo not shown) [Example 110, N-[3-[4-[2-(3-bromophenyl)-3-hydroxy-4-oxo-imidazolidine-1-carbonyl]-3,5-difluoro-phenyl]prop-2-ynyl]methanesulfonamide] | ≥ 6.00 | 
15 | NS(=O)(=O)NCC#Cc1cc(F)c(C(=O)N2CC(=O)N(O)C2c2cccc(Br)c2)c(F)c1 (single isomer, unassigned) [Example 147b, 2-(3-bromophenyl)-1-[2,6-difluoro-4-[3-(sulfamoylamino)prop-1-ynyl]benzoyl]-3-hydroxy-4-oxo-imidazolidine] | ≥ 6.00 | most active isomer
16 | CS(=O)(=O)NCc1cc(F)c(C(=O)N2CC(=O)N(O)C2c2cccc(Br)c2)c(F)c1 (stereo not shown) [Example 130, N-[[4-[2-(3-bromophenyl)-3-hydroxy-4-oxo-imidazolidine-1-carbonyl]-3,5-difluoro-phenyl]methyl]methanesulfonamide] | ≥ 6.00 | 
17 | O=C1CN(C(=O)c2ccc(Oc3ccccc3)cc2)C(c2cccc(Br)c2)N1O (stereo not shown) [Example 91, 2-(3-Bromophenyl)-3-hydroxy-1-(4-phenoxybenzoyl)imidazolidin-4-one] | ≥ 5.30 and 5.30 to 6.00 | 
18 | O=C1CN(C(=O)c2c(F)cc(C#CC3CC3)cc2F)C(c2cccc(Br)c2)N1O (single isomer, unassigned) [Example 144b, 2-(3-bromophenyl)-1-[4-(2-cyclopropylethynyl)-2,6-difluoro-benzoyl]-3-hydroxy-imidazolidin-4-one] | ≥ 6.00 | most active isomer
19 | NS(=O)(=O)NCC#Cc1cc(F)c(C(=O)N2CC(=O)N(O)C2c2cccc(Br)c2)c(F)c1 (stereo not shown) [Example 111, 2-(3-Bromophenyl)-1-[2,6-difluoro-4-[3-(sulfamoylamino)prop-1-ynyl]benzoyl]-3-hydroxy-4-oxo-imidazolidine] | ≥ 6.00 | 
20 | O=C1CN(C(=O)c2c(F)cc(-c3cccnc3)cc2F)C(c2cccc(Br)c2)N1O (stereo not shown) [Example 123, 2-(3-Bromophenyl)-1-[2,6-difluoro-4-(3-pyridyl)benzoyl]-3-hydroxy-imidazolidin-4-one] | ≥ 5.30 and 5.30 to 6.00 | 
21 | Cc1cccc(C2N(O)C(=O)CN2C(=O)c2c(F)cccc2F)c1 (stereo not shown) [Example 69, 1-(2,6-Difluorobenzoyl)-3-hydroxy-2-(m-tolyl)imidazolidin-4-one] | ≥ 5.30 and 5.30 to 6.00 | 
22 | O=C1CN(C(=O)c2c(Cl)cccc2Cl)C(c2ccc(F)c(Br)c2)N1O (stereo not shown) [Example 48, 2-(3-Bromo-4-fluoro-phenyl)-1-(2,6-dichlorobenzoyl)-3-hydroxy-imidazolidin-4-one] | ≥ 5.30 and 5.30 to 6.00 | 
23 | O=C1CN(Cc2ccccc2F)C(c2ccc(F)c(Br)c2)N1O (stereo not shown) [Example 126, 2-(3-Bromo-4-fluoro-phenyl)-1-[(2-fluorophenyl)methyl]-3-hydroxy-imidazolidin-4-one] | ≥ 6.00 | 
24 | C[C@@H](c1ccccc1)N1CC(=O)N(O)C1c1cccc(Br)c1 (single isomer, unassigned) [Example 139a] |  | less active isomer
25 | O=C1CN(C(=O)c2c(F)cccc2Cl)C(c2ccc(F)c(Br)c2)N1O (single isomer, unassigned) [Example 143b, 2-(3-bromo-4-fluoro-phenyl)-1-(2-chloro-6-fluoro-benzoyl)-3-hydroxy-imidazolidin-4-one] | ≥ 6.00 | most active isomer
26 | O=C1CN(C(=O)C2CCC2)C(c2ccc(F)c(Br)c2)N1O (stereo not shown) [Example 23, 2-(3-Bromo-4-fluoro-phenyl)-1-(cyclobutanecarbonyl)-3-hydroxy-imidazolidin-4-one] | ≥ 5.30 and 5.30 to 6.00 | 
27 | CC(C)c1cc(C(=O)N2CC(=O)N(O)C2c2cccc(Br)c2)no1 (stereo not shown) [Example 96, 2-(3-Bromophenyl)-3-hydroxy-1-(5-isopropylisoxazole-3-carbonyl)imidazolidin-4-one] | ≥ 5.30 and 5.30 to 6.00 | 
28 | NS(=O)(=O)N1CCC(C(=O)N2CC(=O)N(O)C2c2cccc(Br)c2)CC1 (stereo not shown) [Example 101, 4-[2-(3-Bromophenyl)-3-hydroxy-4-oxo-imidazolidine-1-carbonyl]piperidine-1-sulfonamide] | ≥ 5.30 and 5.30 to 6.00 | 
29 | CC(C)(N)C#Cc1cc(F)c(C(=O)N2CC(=O)N(O)C2c2cccc(Br)c2)c(F)c1 (stereo not shown) [Example 112, 1-[4-(3-Amino-3-methyl-but-1-ynyl)-2,6-difluoro-benzoyl]-2-(3-bromophenyl)-3-hydroxy-imidazolidin-4-one] | ≥ 5.30 and 5.30 to 6.00 | 
30 | O=C1CN(Cc2ccccc2F)C(c2cccc(I)c2)N1O (single isomer, unassigned) [Example 146b, 1-[(2-fluorophenyl)methyl]-3-hydroxy-2-(3-iodophenyl)imidazolidin-4-one] | ≥ 6.00 | most active isomer
31 | CC(=O)NC(C)(C)C#Cc1cc(F)c(C(=O)N2CC(=O)N(O)C2c2cccc(Br)c2)c(F)c1 (stereo not shown) [Example 113, N-[3-[4-[2-(3-bromophenyl)-3-hydroxy-4-oxo-imidazolidine-1-carbonyl]-3,5-difluoro-phenyl]-1,1-dimethyl-prop-2-ynyl]acetamide] | ≥ 5.30 and 5.30 to 6.00 | 
32 | C[C@@H](c1ccccc1)N1CC(=O)N(O)C1c1cccc(I)c1 (single isomer, unassigned) [Example 140b] | ≥ 6.00 | most active isomer
33 | CCOC(=O)NC[C@H]1CC[C@H](C(=O)N2CC(=O)N(O)C2c2cccc(Br)c2)CC1 (relative stereo) [Example 102, (Trans)-ethyl N-[[4-[2-(3-bromophenyl)-3-hydroxy-4-oxo-imidazolidine-1-carbonyl]cyclohexyl]-methyl]carbamate] | ≥ 5.30 and 5.30 to 6.00 | 
34 | C[C@@H]1C(=O)N(O)C(c2cccc(Br)c2)N1C(=O)c1ccccc1F (single isomer, unassigned) [Example 57] | ≥ 5.30 and 5.30 to 6.00 | 
35 | CS(=O)(=O)N1CCC(C(=O)N2CC(=O)N(O)C2c2cccc(Br)c2)CC1 (stereo not shown) [Example 100, 2-(3-Bromophenyl)-3-hydroxy-1-(1-methylsulfonylpiperidine-4-carbonyl)imidazolidin-4-one] | ≥ 5.30 and 5.30 to 6.00 | 
